Like-named read-outs stand apart in the source and are kept apart here.
Columns and labels:
Cercospora beticola = assay: whole plant or invertebrate; conditions: in Beta vulgaris, foliar, 24 h, read-out: Percent Disease Control, curative, sugar beet leaf spot
Phytophthora infestans [1] = assay: whole plant or invertebrate; format: in vivo; conditions: for pest or weed control at 150 ppm: Phytophthora infestans, in Solanum lycopersicum, foliar, read-out: Percent Disease Control, foliar, tomato late blight, 150 ppm, protective
Fusarium solani = assay: Soil treatment, bean root rot; format: in vivo; conditions: Fusarium solani, soil, 336 h; 150 ppm suspension, 3.8 mg active per pot; read-out: Percent Disease Control, seed/soil, bean root rot
Procedure: In a similar manner the soil around a bean seedling was drenched with a sufficient amount of 150 ppm suspension of test chemical to provide 3.8 mg active per pot. Twenty-four hours later the soil was inoculated with a suspension of minced mycelium of Fusarium solani. The inoculated plants were then placed in a greenhouse, evaluated after fourteen days, and percent control of root rot damage calculated. The results, reported in Table III, indicate only a few of the compounds tested are effective in treating Bean Root Rot but that these provide a high degree of control.

Phytophthora infestans [2] = format: cell-based; conditions: PI, 48 hours

Row | SMILES | pest or weed control at 150 ppm (Cercospora beticola) | pest or weed control at 150 ppm (Phytophthora infestans [1]) | pest or weed control at 150 ppm, 3.8 mg/pot (Fusarium solani) | Spore Germination Rating (Phytophthora infestans [2]; 1.0 ppm) | Spore Germination Rating (Phytophthora infestans [2]; 2.5 ppm) | Spore Germination Rating (Phytophthora infestans [2]; 10 ppm) | Spore Germination Rating (Phytophthora infestans [2]; 40 ppm) | Percent Disease Control, foliar, tomato late blight (Phytophthora infestans [1]; 150 ppm, protective)
1 | O=c1c(Cl)nsnc1Oc1ccc(F)cc1 [Compound 11, 3-chloro-5-(4-fluorophenoxy)-4H--1,2,6-thiadiazin-4-one] | 0% | 100% | 0% | 4 (80-100) | 0 (0-10) | 0 (0-10) | 0 (0-10) | 
2 | O=c1c(Cl)nsnc1Oc1ccc(Cl)cc1 [Compound 12, 3-chloro-5-(4-chlorophenoxy)-4H--1,2,6-thiadiazin-4-one] | 95% | 100% | 0% | 1 (10-40) | 1 (10-40) | 1 (10-40) | 0 (0-10) | 
3 | O=c1c(Cl)nsnc1Oc1cccc(Cl)c1 [Compound 13, 3-chloro-5-(3-chlorophenoxy)-4H--1,2,6-thiadiazin-4-one] | 98% | 98% | 75% | 0 (0-10) | 0 (0-10) | 0 (0-10) | 0 (0-10) | 
4 | O=c1c(Cl)nsnc1Oc1ccccc1Cl [Compound 14, 3-chloro-5-(2-chlorophenoxy)-4H--1,2,6-thiadiazin-4-one] | 0% | 0% | 90% | 0 (0-10) | 0 (0-10) | 0 (0-10) | 0 (0-10) | 
5 | O=c1c(Cl)nsnc1Oc1ccc(Br)cc1 [Compound 15, 3-chloro-5-(4-bromophenoxy)-4H--1,2,6-thiadiazin-4-one] | 0% | 100% | 0% | 0 (0-10) | 1 (10-40) | 0 (0-10) | 0 (0-10) | 
6 | O=c1c(Cl)nsnc1Oc1ccc(Cl)c(Cl)c1 [Compound 16, 3-chloro-5-(3,4-dichlorophenoxy)-4H--1,2,6-thiadiazin-4-one] | 95% | 0% | 0% | 1 (10-40) | 0 (0-10) | 0 (0-10) | 0 (0-10) | 
7 | O=c1c(Cl)nsnc1Oc1ccc(Cl)cc1Cl [Compound 17, 3-chloro-5-(2,4-dichlorophenoxy)-4H--1,2,6-thiadiazin-4-one] | 95% | 100% | 0% | 3 (60-80) | 0 (0-10) | 0 (0-10) | 0 (0-10) | 
8 | O=c1c(Cl)nsnc1Oc1cccc(Cl)c1Cl [Compound 19, 3-chloro-5-(2,3-dichlorophenoxy)-4H--1,2,6-thiadiazin-4-one] | 0% | 0% | 0% | 3 (60-80) | 0 (0-10) | 0 (0-10) | 0 (0-10) | 
9 | O=c1c(Cl)nsnc1Oc1cc(Cl)cc(Cl)c1 [Compound 20, 3-chloro-5-(3,5-dichlorophenoxy)-4H--1,2,6-thiadiazin-4-one] | 95% | 0% | 75% | 0 (0-10) | 0 (0-10) | 0 (0-10) | 0 (0-10) | 
10 | Cc1cccc(Oc2nsnc(Cl)c2=O)c1 [Compound 21, 3-chloro-5-(3-methylphenoxy)-4H--1,2,6-thiadiazin-4-one] | 100% | 50% | 0% | 4 (80-100) | 1 (10-40) | 0 (0-10) | 0 (0-10) | 
11 | Cc1ccccc1Oc1nsnc(Cl)c1=O [Compound 22, 3-chloro-5-(2-methylphenoxy)-4H--1,2,6-thiadiazin-4-one] | 0% | 0% | 0% | 0 (0-10) | 0 (0-10) | 0 (0-10) | 0 (0-10) | 
12 | Cc1ccc(Oc2nsnc(Cl)c2=O)c(C)c1 [Compound 23, 3-chloro-5-(2,4-dimethylphenoxy)-4H--1,2,6-thiadiazin-4-one] | 100% | 0% | 0% | 4 (80-100) | 2 (40-60) | 2 (40-60) | 0 (0-10) | 
13 | Cc1cccc(C)c1Oc1nsnc(Cl)c1=O [Compound 24, 3-chloro-5-(2,6-dimethylphenoxy)-4H--1,2,6-thiadiazin-4-one] | 50% | 98% | 0% | 4 (80-100) | 2 (40-60) | 1 (10-40) | 0 (0-10) | 
14 | Cc1cc(C)cc(Oc2nsnc(Cl)c2=O)c1 [Compound 25, 3-chloro-5-(3,5-dimethylphenoxy)-4H--1,2,6-thiadiazin-4-one] | 50% | 100% | 0% | 4 (80-100) | 1 (10-40) | 0 (0-10) | 0 (0-10) | 
15 | Nc1ccc(Oc2nsnc(Cl)c2=O)cc1 [Compound 26, 5-(4-aminophenoxy)-3-chloro-4H--1,2,6-thiadiazin-4-one] | 95% |  | 0% | 4 (80-100) | 4 (80-100) | 4 (80-100) | 2 (40-60) | 0%
16 | CNC(=O)Nc1ccc(Oc2nsnc(Cl)c2=O)cc1 [Compound 28, 3-chloro-5-[4-(3-methylureido)-phenoxy]-4H--1,2,6-thiadiazin-4-one] | 0% | 90% | 95% | 4 (80-100) | 4 (80-100) | 4 (80-100) | 2 (40-60) | 
17 | O=C(Nc1ccccc1)Nc1ccc(Oc2nsnc(Cl)c2=O)cc1 [Compound 29, 3-chloro-5-[4-(3-phenylureido)-phenoxy]-4H--1,2,6-thiadiazin-4-one] | 95% | 100% | 0% | 4 (80-100) | 4 (80-100) | 4 (80-100) | 3 (60-80) | 
18 | O=c1c(Cl)nsnc1Oc1c(Cl)cc(Cl)cc1Cl [Compound 30, 3-chloro-5-(2,4,6-trichlorophenoxy)-4H--1,2,6-thiadiazin-4-one] | 0% | 0% | 0% | 4 (80-100) | 1 (10-40) | 0 (0-10) | 0 (0-10) | 
19 | O=c1c(Cl)nsnc1Oc1c(Cl)c(Cl)c(Cl)c(Cl)c1Cl [Compound 31, 3-chloro-5-(pentachlorophenoxy)-4H--1,2,6-thiadiazine-4-one] | 0% | 0% | 0% | 4 (80-100) | 3 (60-80) | 2 (40-60) | 2 (40-60) | 
20 | O=c1c(Cl)nsnc1Oc1cccc2ccccc12 [Compound 32, 3-chloro-5(1-naphthoxy)-4H-1,2,6-thiadiazin-4-one] | 90% | 0% | 0% | 3 (60-80) | 1 (10-40) | 0 (0-10) | 0 (0-10) | 

Reference: patent US4450269A, “Mono-5-substituted-3-chloro-4H-1,2,6-thiadiazin-4-one antifungal agents” (FMC Corporation, priority 1980, dated 1984)
